In publication PMC8085013, “Mixture interactions at mammalian olfactory receptors are dependent on the cellular environment” (Scientific Reports, 2021):

Tests used:
[1] = molecular target: T1, Olfr599 (Mus musculus, UniProt Q8VG01); experiment: Calcium imaging of HEK293 cells expressing Olfr599; type: cell-based
Description: Heterologous expression of mouse ORs was based on the previously published method. HEK293 (ATCC CRL-1537) or HEK293T (ATCC CRL-3216) cells were grown in a high glucose […] (DMEM) supplemented with 10% FBS, penicillin and streptomycin, and 2 mM L-glutamine and maintained at 37 °C (5% CO2). A rhodopsin-tagged mouse olfactory receptor Olfr73 and Olfr599 (provided by Dr. Matsunami, Duke University) was co-expressed with RTP1s, a short version of the Receptor Transporting Protein 1 ensuring proper surface trafficking of the receptor (provided by Dr. Touhara, University of Tokyo). To reconstitute different G-protein coupled signaling pathways, one of the three G-proteins was co-expressed along with the OR and RTP1s, promiscuous mouse Gα15 (Thermo Scientific Open Biosystems), heterotrimeric Gαq11/ß1/γ13, both coupled to endogenous PLC/calcium release, and human Gαolf (Missouri S&T cDNA Resource Center). To assay activity-dependent accumulation of cAMP generated by activation of the Gs/Golf pathway, the cells were additionally co-transfected with a mutated A2 subunit of the rat olfactory cyclic nucleotide gated channel (CNGCmut). Two mutations C460W and E583M ensured high sensitivity and selectivity of the channel to cAMP (a gift from Dr. Rich, University of South Alabama). Transfections were performed using Calfectin (SignaGen). […]

[2] = molecular target: T1, Olfr599; experiment: GCaMP3 calcium imaging of mouse OSNs ectopically expressing Olfr599 (rAAV2/5); type: cell-based; settings: each at 100 µM, 5-s pulse
Description: Animals 4–6 weeks of age were used for experiments 7–21 days post-inoculation with rAAV2/5 encoding OR-furin2A-GCaMP3. Calcium imaging was performed as detailed previously. Tissue was prepared and mounted with the apical surface facing up. The chamber was transferred to the stage of an upright microscope (Zeiss Axioskop-2F) equipped with a 40×/0.75NA long distance water-immersion objective lens. Experimental solutions were applied for a duration of 5 s directly to the field of view through a 100 µm diameter needle made of fused silica and connected to a 9-channel Teflon manifold. Solution application was controlled by electronic valves (VC-6, Warner Instruments). The calcium response is presented as an increase of GCaMP3 fluorescence originating from the knob and underlying dendrite. The tissue was illuminated using a standard eGFP filter cube BP490 nm/ 535 nm (Omega Optical, USA) and the emitted light was collected at 530 nm (BP 530/20 nm, Omega Optical, USA) by a 12-bit cooled CCD camera (ORCA R2, Hamamatsu, Japan). […] Before processing, fluorescence intensity was corrected for the background. Each knob was assigned a region of interest (ROI) and changes in fluorescence intensity within each ROI were analyzed and expressed as the peak fractional change in fluorescent light intensity (F-Fo)/Fo where Fo is the baseline fluorescence before application of experimental solutions.

[3] = molecular target: T2, mouse Olfr73 (Mus musculus, UniProt Q920P2); parameters: method as in PMID 25149566; settings: starred cells, previously published in vitro work under the same conditions ref 25; cited from earlier work
T2 sequence (Q920P2 1-313): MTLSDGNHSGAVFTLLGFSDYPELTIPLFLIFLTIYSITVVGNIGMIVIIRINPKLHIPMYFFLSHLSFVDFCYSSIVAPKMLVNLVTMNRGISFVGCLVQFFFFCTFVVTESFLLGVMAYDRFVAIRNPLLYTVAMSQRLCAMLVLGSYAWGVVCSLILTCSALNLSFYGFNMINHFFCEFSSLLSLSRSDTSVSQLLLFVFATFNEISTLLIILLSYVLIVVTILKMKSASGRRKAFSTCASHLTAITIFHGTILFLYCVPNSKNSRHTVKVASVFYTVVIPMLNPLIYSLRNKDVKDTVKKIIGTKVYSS

[4] = molecular target: T2, mouse Olfr73; parameters: method as in PMID 25149566; settings: starred cells, previously published in vitro work under the same conditions ref 25; cited from earlier work; remark: listed apart in the source
[5] = molecular target: T2, mouse Olfr73; experiment: GCaMP3 calcium imaging of mouse OSNs ectopically expressing Olfr73 (rAAV2/5), 5-s odorant pulse; type: cell-based; settings: 5-s pulse
[6] = molecular target: T2, mouse Olfr73; experiment: GCaMP3 calcium imaging of rat OSNs ectopically expressing Olfr73 (rAAV2/5), 5-s odorant pulse; type: cell-based; settings: 5-s pulse
[7] = tested on: endogenous adrenergic receptors; experiment: Isoproterenol saturating control in the cAMP/CNGCmut calcium influx assay in HEK293 cells; type: cell-based; settings: 10 µM, applied for 5-min
Description: Calcium imaging was performed as described previously. HEK293 cells were incubated (30 min/37 °C) in a DMEM containing 6–8 µM Fluo-4/AM (Invitrogen) or Fluo-2/AM (TefLabs) containing 0.04% Pluronic F127. Activity of cells expressing untagged ORs from the bicistronic pTR plasmid was reported by expressed GCaMP3. Odorant solutions were applied sequentially to the cells for 5 s with a 3 min interval between each application to allow recovery from desensitization resulting from previous application of odorants. In the case of prolonged 10-min stimulation, the cells were allowed to recover for at least 10 min before adding a binary mix or isoproterenol alone, activating endogenous production of cAMP. Cells growing either on a 35-mm plastic dish or on a round poly-L-lysine coated cover glass were transferred to the stage of an inverted microscope (Axiovert 200, Zeiss) equipped with a 10x/0.5NA Fluar objective. Odorants were applied to the cells as a 5-s long pulse using a computer-controlled fast perfusion system (RSC-200, BioLogic, France) ensuring precise delivery of the stimulus with a minimal time lag. The perfusion system was controlled by Clampex 9.2 or 10.2 software (Molecular Devices). In some experiments, cells were pre-incubated with a putative antagonist for 30-s before applying a 5-s pulse of agonist. […]

T1 sequence (Q8VG01 entry or part of it): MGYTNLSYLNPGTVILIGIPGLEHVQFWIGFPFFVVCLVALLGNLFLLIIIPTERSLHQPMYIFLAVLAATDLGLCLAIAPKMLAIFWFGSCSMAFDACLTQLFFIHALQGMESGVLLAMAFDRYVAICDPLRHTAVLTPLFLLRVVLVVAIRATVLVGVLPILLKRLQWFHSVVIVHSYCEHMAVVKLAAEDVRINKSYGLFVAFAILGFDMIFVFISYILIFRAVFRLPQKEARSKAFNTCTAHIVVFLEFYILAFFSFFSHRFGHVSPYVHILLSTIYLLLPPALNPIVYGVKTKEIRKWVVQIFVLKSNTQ

CCCCCCCC(=O)O [Octanoic acid]
Response to ligand applied alone ([1]; HEK293, Olfr599 with Gαq11/ß1/γ13, 100 µM): robust activation | EC50 ([1]; HEK293 cells, Olfr599): 70 µM | Response to ligand applied alone [2]: evoked reliable neuronal responses

isoeugenol
Agonism/antagonism, HEK293 short odor Ca2+ G15 [3]: Agonist* | Agonism/antagonism, HEK293 short odor Ca2+ Gs/olf [4]: Agonist*

C=C(C)[C@@H]1CCC2=CC(=O)C[C@@H](C)[C@]2(C)C1 [Nootkatone, nootkatone]
Agonism/antagonism, HEK293 short odor Ca2+ G15 [3]: Inactive* | Agonism/antagonism, OSN Ca2+ Mouse ([5]; strong agonist 100 µM, putative antagonist 1 mM, single or as pair): Agonist | Response relative to the response to eugenol ([5]; ligand 1 mM, Olfr73-OSNs): 50% | Response to ligand applied alone ([5]; mouse Olfr73-OSNs): weak agonist | Agonism/antagonism, HEK293 short odor Ca2+ Gs/olf [4]: Inactive* | Agonism/antagonism, OSN Ca2+ Rat ([6]; strong agonist 100 µM, putative antagonist 1 mM): Agonist | Response to ligand applied alone ([6]; rat Olfr73-OSNs): lower than that to eugenol

CC(C)NCC(O)c1ccc(O)c(O)c1 (stereo not shown) [Isoproterenol]
cAMP-dependent response [7]: robust sustained response
